Data set [1] concerns single-stranded DNA (5′-d(agcaaaaaacgc)-3′; SEQ ID NO: 7) (a sense strand). Description: Melting temperature (Tm), capability of forming double strand with single-stranded DNA. The data set is classed as binding. Particulars: for capability of forming a double strand with single-stranded DNA versus single-stranded RNA: antisense strand as shown in SEQ ID NO: 1, modified with one base; for Tm: pH 7.2.

For data set [2], the system named is single-stranded RNA (5′-r(agcaaaaaacgc)-3′; SEQ ID NO: 8) (a sense strand). The data set is classed as binding. Particulars: pH 7.2.

[NMe] = code of the source, not defined here; [(B)β] = from compound B-13; [(C)Hβ] = from compound C-8; d = 2'-deoxy (DNA)

Turning to “5′-d(gcgttxtttgct)-3′ x = (B)β-T: (B)β-T modified oligonucleotide, antisense 12-mer DNA (SEQ ID NO: 1), one x = (B)β-T unit from compound B-13 (antisense GCGTTTTTTGCT; sugars from the 5' end d5 [(B)β]1 d6, backbone not given here)”, the “capability of forming a double strand with single-stranded DNA versus single-stranded RNA” value in data set [1] is given as “superior capability of forming a double strand together with single-stranded DNA over single-stranded RNA”.

As to “5′-d(gcgxtxtxtgct)-3′ x = NMe-T: reference antisense 12-mer (SEQ ID NO: 2); three x = formula (9) unit, Base thymin-1-yl, R^b Me (antisense GCGTTTTTTGCT; sugars from the 5' end ddd[NMe]d[NMe]d[NMe]dddd, backbone and methylation of C not given here)”, the Tm is 52 °C in data set [1] and 64 °C in data set [2].

On to “5′-d(gcgtxxxttgct)-3′ x = NMe-T: reference antisense 12-mer (SEQ ID NO: 3); three x = formula (9) unit, Base thymin-1-yl, R^b Me (antisense GCGTTTTTTGCT; sugars from the 5' end d4 [NMe]3 d5, backbone and methylation of C not given here)”, for which the values for the Tm in data set [1] and in data set [2] were 51 °C and 60 °C, respectively.

Consider “5′-d(gcgttxtttgct)-3′ x = (C)Hβ-T: (C)Hβ-T modified oligonucleotide, antisense 12-mer DNA (SEQ ID NO: 1), one x = (C)Hβ-T unit from compound C-8 (antisense GCGTTTTTTGCT; sugars from the 5' end d5 [(C)Hβ]1 d6, backbone not given here)”, for which, in data set [1], the “capability of forming a double strand with single-stranded DNA versus single-stranded RNA” value is on record as “superior capability of forming a double strand together with single-stranded DNA over single-stranded RNA”.
